Results taken from the NIST ThermoML archive (doi:10.1016/j.fluid.2016.02.018).
± gives the expanded uncertainty stated by the source.

Details: 293.2 K; 101.33 kPa; Liquid; Vibrating tube method

| Compound | mass density [kg/m3] |
| --- | --- |
| CC[n+]1ccc(C)cc1.O=S(=O)([N-]S(=O)(=O)C(F)(F)F)C(F)(F)F | 1489.9 ± 0.7 |
| CCn1cc[n+](C)c1.N#CN=C=[N-] [1-ethyl-3-methylimidazolium dicyanamide] | 1104.9 ± 1.1 |
